Laboratory results taken from patent US20240293413A1, “COMPOUND AND METHOD FOR TREATING CHEMOTHERAPY-RELATED GASTROINTESTINAL SIDE EFFECTS” (ONQUALITY PHARMACEUTICALS CHINA LTD., priority 2021, published 2024).

Tests used:
Format in all cases: in vivo
[1] = tested on: diarrhea caused by a chemotherapeutic agent in Balb/c mice; experiment: Examples 343-381 (Table 6): oral versus intravenous CDK inhibitor, relief of diarrhea caused by a chemotherapeutic agent;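 on Relative remission rate: percent of treated mice whose diarrhea grade fell below chemotherapy-group average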
Summary of the method: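 Balb/c mice (10 per group) received the CDK inhibitor orally or by tail-vein injection, or vehicle, followed by a chemotherapeutic agent or its solvent. Diarrhea grade was scored daily.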

[2] = tested on: constipation caused by a chemotherapeutic agent in Balb/c mice; experiment: Examples 406-443 (Table 8): various administration modes of the CDK inhibitor, relief of constipation caused by a chemotherapeutic agent;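 on Relative remission rate of oral administration: percent of treated mice relieved versus chemotherapy group by feces reduction rate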;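 on Relative remission rate of other administration mode: percent of treated mice relieved versus chemotherapy group by feces reduction rate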
Summary of the method: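 Balb/c mice (10 per group) received the CDK inhibitor orally, intravenously via the tail vein, intraperitoneally, intramuscularly, or topically on shaved abdominal skin, followed by a chemotherapeutic agent; vehicle groups served as controls. Feces amount over 3 h was recorded daily. Feces reduction rate was calculated relative to the control group.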

[3] = tested on: diarrhea caused by a chemotherapeutic agent in Balb/c mice; experiment: Examples 230-271 (Table 4): oral CDK inhibitor, relief of diarrhea caused by a chemotherapeutic agent
Summary of the method: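 Balb/c mice, 10 per group (vehicle, chemotherapeutic agent, CDK inhibitor plus chemotherapeutic); CDK inhibitor dosed intragastrically before the chemotherapeutic agent by injection or gavage. Diarrhea graded daily.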

## CN(C)C(=O)c1cc2cnc(Nc3ccc(N4CCNCC4)cn3)nc2n1C1CCCC1 [Ribociclib]
[1]; Example 352, Etoposide and cisplatin intraperitoneal injection 50 (E) 5 (Cis) mg/kg single, CDK inhibitor intravenous injection 125 mg/kg single, 0.5 h before, cycle 7 days
  Relative remission rate: 10%
[1]; Example 352, Etoposide and cisplatin intraperitoneal injection 50 (E) 5 (Cis) mg/kg single, CDK inhibitor oral 125 mg/kg single, 0.5 h before, cycle 7 days
  Relative remission rate: 40%
[1]; Example 353, Etoposide and cisplatin intraperitoneal injection 50 (E) 5 (Cis) mg/kg single, CDK inhibitor intravenous injection 125 mg/kg single, 4 h before, cycle 7 days
  Relative remission rate: 10%
[1]; Example 353, Etoposide and cisplatin intraperitoneal injection 50 (E) 5 (Cis) mg/kg single, CDK inhibitor oral 125 mg/kg single, 4 h before, cycle 7 days
  Relative remission rate: 40%
[1]; Example 354, Etoposide and cisplatin intraperitoneal injection 50 (E) 5 (Cis) mg/kg single, CDK inhibitor intravenous injection 125 mg/kg single, 8 h before, cycle 7 days
  Relative remission rate: 10%
[1]; Example 354, Etoposide and cisplatin intraperitoneal injection 50 (E) 5 (Cis) mg/kg single, CDK inhibitor oral 125 mg/kg single, 8 h before, cycle 7 days
  Relative remission rate: 60%
[1]; Example 355, Etoposide and cisplatin intraperitoneal injection 50 (E) 5 (Cis) mg/kg single, CDK inhibitor intravenous injection 125 mg/kg single, 12 h before, cycle 7 days
  Relative remission rate: 20%
[1]; Example 355, Etoposide and cisplatin intraperitoneal injection 50 (E) 5 (Cis) mg/kg single, CDK inhibitor oral 125 mg/kg single, 12 h before, cycle 7 days
  Relative remission rate: 60%
[1]; Example 356, Etoposide and cisplatin intraperitoneal injection 50 (E) 5 (Cis) mg/kg single, CDK inhibitor intravenous injection 125 mg/kg single, 24 h before, cycle 7 days
  Relative remission rate: 10%
[1]; Example 356, Etoposide and cisplatin intraperitoneal injection 50 (E) 5 (Cis) mg/kg single, CDK inhibitor oral 125 mg/kg single, 24 h before, cycle 7 days
  Relative remission rate: 50%
[1]; Example 359, Carboplatin (CBP) intraperitoneal injection 120 mg/kg single, CDK inhibitor intravenous injection 200 mg/kg single, 0.5 h before, cycle 10 days
  Relative remission rate: 20%
[1]; Example 359, Carboplatin (CBP) intraperitoneal injection 120 mg/kg single, CDK inhibitor oral 200 mg/kg single, 0.5 h before, cycle 10 days
  Relative remission rate: 60%
[1]; Example 360, Carboplatin (CBP) intraperitoneal injection 120 mg/kg single, CDK inhibitor intravenous injection 200 mg/kg single, 4 h before, cycle 10 days
  Relative remission rate: 20%
[1]; Example 360, Carboplatin (CBP) intraperitoneal injection 120 mg/kg single, CDK inhibitor oral 200 mg/kg single, 4 h before, cycle 10 days
  Relative remission rate: 80%
[1]; Example 361, Carboplatin (CBP) intraperitoneal injection 120 mg/kg single, CDK inhibitor intravenous injection 200 mg/kg single, 8 h before, cycle 10 days
  Relative remission rate: 10%
[1]; Example 361, Carboplatin (CBP) intraperitoneal injection 120 mg/kg single, CDK inhibitor oral 200 mg/kg single, 8 h before, cycle 10 days
  Relative remission rate: 60%
[1]; Example 362, Carboplatin (CBP) intraperitoneal injection 120 mg/kg single, CDK inhibitor intravenous injection 200 mg/kg single, 12 h before, cycle 10 days
  Relative remission rate: 10%
[1]; Example 362, Carboplatin (CBP) intraperitoneal injection 120 mg/kg single, CDK inhibitor oral 200 mg/kg single, 12 h before, cycle 10 days
  Relative remission rate: 60%
[1]; Example 363, Carboplatin (CBP) intraperitoneal injection 120 mg/kg single, CDK inhibitor intravenous injection 200 mg/kg single, 24 h before, cycle 10 days
  Relative remission rate: 10%
[1]; Example 363, Carboplatin (CBP) intraperitoneal injection 120 mg/kg single, CDK inhibitor oral 200 mg/kg single, 24 h before, cycle 10 days
  Relative remission rate: 80%
[1]; Example 376, Gemcitabine (GEM) oral administration 300 mg/kg single, CDK inhibitor intravenous injection 100 mg/kg single, 24 h before, cycle 8 days
  Relative remission rate: 20%
[1]; Example 376, Gemcitabine (GEM) oral administration 300 mg/kg single, CDK inhibitor oral 100 mg/kg single, 24 h before, cycle 8 days
  Relative remission rate: 60%
[1]; diarrhea caused by etoposide, etoposide in combination with cisplatin, carboplatin, gemcitabine, gemcitabine in combination with carboplatin, and topotecan, oral administration has the most significant effect
  relief of diarrhea by oral administration and injection administration: effectively relieve diarrhea
[2]; Example 424, Carboplatin intraperitoneal injection 120 mg/kg single, CDK inhibitor intraperitoneal injection 200 mg/kg single, 0.5 h before, cycle 10 days
  Relative remission rate of other administration mode: 10%
[2]; Example 424, Carboplatin intraperitoneal injection 120 mg/kg single, CDK inhibitor oral 200 mg/kg single, 0.5 h before, cycle 10 days
  Relative remission rate of oral administration: 20%
[2]; Example 425, Carboplatin intraperitoneal injection 120 mg/kg single, CDK inhibitor intraperitoneal injection 200 mg/kg single, 4 h before, cycle 10 days
  Relative remission rate of other administration mode: 10%
[2]; Example 425, Carboplatin intraperitoneal injection 120 mg/kg single, CDK inhibitor oral 200 mg/kg single, 4 h before, cycle 10 days
  Relative remission rate of oral administration: 30%
[2]; Example 426, Carboplatin intraperitoneal injection 120 mg/kg single, CDK inhibitor intraperitoneal injection 200 mg/kg single, 8 h before, cycle 10 days
  Relative remission rate of other administration mode: 20%
[2]; Example 426, Carboplatin intraperitoneal injection 120 mg/kg single, CDK inhibitor oral 200 mg/kg single, 8 h before, cycle 10 days
  Relative remission rate of oral administration: 50%
[2]; Example 427, Carboplatin intraperitoneal injection 120 mg/kg single, CDK inhibitor intraperitoneal injection 200 mg/kg single, 12 h before, cycle 10 days
  Relative remission rate of other administration mode: 20%
[2]; Example 427, Carboplatin intraperitoneal injection 120 mg/kg single, CDK inhibitor oral 200 mg/kg single, 12 h before, cycle 10 days
  Relative remission rate of oral administration: 50%
[2]; Example 428, Carboplatin intraperitoneal injection 120 mg/kg single, CDK inhibitor intraperitoneal injection 200 mg/kg single, 24 h before, cycle 10 days
  Relative remission rate of other administration mode: 10%
[2]; Example 428, Carboplatin intraperitoneal injection 120 mg/kg single, CDK inhibitor oral 200 mg/kg single, 24 h before, cycle 10 days
  Relative remission rate of oral administration: 40%
[2]; Example 435, Gemcitabine oral administration 300 mg/kg single, CDK inhibitor local administration 100 mg/kg single, 24 h before, cycle 8 days
  Relative remission rate of other administration mode: 20%
[2]; Example 435, Gemcitabine oral administration 300 mg/kg single, CDK inhibitor oral 100 mg/kg single, 24 h before, cycle 8 days
  Relative remission rate of oral administration: 50%
[2]; constipation caused by doxorubicin, etoposide, etoposide plus cisplatin, carboplatin, gemcitabine, gemcitabine plus carboplatin, under certain conditions, oral most significant
  improvement of constipation by oral administration, intraperitoneal injection, intramuscular injection, local administration: can significantly improve constipation
[3]; Example 243, Methotrexate (MTX) intravenous injection 300 mg/kg single, CDK inhibitor oral 125 mg/kg single, 0.5 h before, cycle 7 days
  Relative remission rate: 80%
[3]; Example 244, Methotrexate (MTX) intravenous injection 300 mg/kg single, CDK inhibitor oral 125 mg/kg single, 4 h before, cycle 7 days
  Relative remission rate: 60%
[3]; Example 245, Methotrexate (MTX) intravenous injection 300 mg/kg single, CDK inhibitor oral 125 mg/kg single, 8 h before, cycle 7 days
  Relative remission rate: 80%
[3]; Example 246, Methotrexate (MTX) intravenous injection 300 mg/kg single, CDK inhibitor oral 125 mg/kg single, 12 h before, cycle 7 days
  Relative remission rate: 40%
[3]; Example 247, Methotrexate (MTX) intravenous injection 300 mg/kg single, CDK inhibitor oral 125 mg/kg single, 24 h before, cycle 7 days
  Relative remission rate: 60%
[3]; Example 248, Methotrexate (MTX) intravenous injection 300 mg/kg single, CDK inhibitor oral 125 mg/kg single, 48 h before, cycle 7 days
  Relative remission rate: 0%
[3]; Example 251, Methotrexate (MTX) intraperitoneal injection 260 mg/kg single, CDK inhibitor oral 200 mg/kg single, 12 h before, cycle 7 days
  Relative remission rate: 50%
[3]; Example 252, Methotrexate (MTX) intraperitoneal injection 260 mg/kg single, CDK inhibitor oral 200 mg/kg single, 48 h before, cycle 7 days
  Relative remission rate: 0%
[3]; Example 269, Vinorelbine (NVB) oral administration 15 mg/kg single, CDK inhibitor oral 100 mg/kg single, 24 h before, cycle 11 days
  Relative remission rate: 50%
